Values of other authors, collected in patent US20210319872A1, “DRUG AND DEVICE COMBINATION PRODUCTS WITH IMPROVED SAFETY AND EFFICACY PROFILES” (priority 2016, published 2021).
Where two headings read alike, the source gives them in different places. Values belong to the molecule of their own block, whether it stands above or below them.

Abdominal pain (hepatocellular carcinoma): 31%
Alopecia (hepatocellular carcinoma): 14%
Hypoalbuminemia (hepatocellular carcinoma): 59%
Hypocalcemia (hepatocellular carcinoma): 27%
Thrombocytopenia (hepatocellular carcinoma): 46%
Hepatitis (in vivo): < 0.1%
Hypertension, Grade 3 or 4 (in vivo): 4.3%
Pain (in vivo): ≥ 10%
Rash (in vivo): ≤ 35%
Acral erythema (renal cell carcinoma): 30%
Alopecia (renal cell carcinoma): 27%
Hypocalcemia (renal cell carcinoma): 12%
Thrombocytopenia (renal cell carcinoma): 12%
Weight decreased (renal cell carcinoma): 10%
Abdominal pain (thyroid carcinoma): 20%
Acral erythema (thyroid carcinoma): 69%
Alopecia (thyroid carcinoma): 67%
Decrease in appetite (thyroid carcinoma): 30%
Hemorrhage (thyroid carcinoma): carcinoma, 17.4%)
Hypocalcemia (thyroid carcinoma): 36%
Raised TSH level (thyroid carcinoma): 41%
Squamous cell carcinoma of skin (thyroid carcinoma): 3%
Weight decreased (thyroid carcinoma): 49%
Structure (SMILES): CNC(=O)c1cc(Oc2ccc(NC(=O)Nc3ccc(Cl)c(C(F)(F)F)c3)cc2)ccn1 [Nexavar]
Acral erythema (hepatocellular carcinoma): Dermatologic: Acral erythema (hepatocellular carcinoma, 21%;
Lymphocytopenia (hepatocellular carcinoma): hepatocellular carcinoma, 47%), Thrombocytopenia (renal cell
Weight decreased (hepatocellular carcinoma): decreased (hepatocellular carcinoma, 30%; renal cell carcinoma,
Congestive heart failure (in vivo): Cardiovascular: Congestive heart failure (1.9%), Hypertension,
Hypertension, All grades (in vivo): Cardiovascular: Hypertension, All grades (19.1%)
Infectious disease (in vivo): Immunologic: Infectious disease (10% or greater)
Prolonged QT interval (in vivo): (Less than 0.1%)
Common side effect, Dermatologic (listed without frequency): Peeling of skin
Serious side effect, Dermatologic (listed without frequency): Stevens-Johnson syndrome
Serious side effect, Gastrointestinal (listed without frequency): Gastrointestinal: Gastrointestinal hemorrhage, Gastrointestinal
Serious side effect, Respiratory (listed without frequency): Respiratory tract hemorrhage
Abdominal pain (renal cell carcinoma): Gastrointestinal: Abdominal pain (renal cell carcinoma, 11%;
Hemorrhage (renal cell carcinoma): Hematologic: Hemorrhage (renal cell carcinoma, 15.3%; thyroid
Lymphocytopenia (renal cell carcinoma): Hematologic: Lymphocytopenia (renal cell carcinoma, 23%;
ALT/SGPT level raised, Grade 3 or higher (thyroid carcinoma): carcinoma, 4%), AST/SGOT level raised, Grade 3 or 4 (thyroid
ALT/SGPT level raised, all grades (thyroid carcinoma): 59%), AST/SGOT level raised, All grades (thyroid carcinoma,
AST/SGOT level raised, All grades (thyroid carcinoma): 54%)
AST/SGOT level raised, Grade 3 or 4 (thyroid carcinoma): 2%

Nausea (erythema nodosum leprosum): 4.2%
Rash (erythema nodosum leprosum): nodosum leprosum, 20.8%)
Ischemic heart disease (in vivo): 11.1%
Myocardial infarction (in vivo): Myocardial infarction (1.3%)
Atrial fibrillation, Grade 3/4 (multiple myeloma): 5%
Confusional state (multiple myeloma): 28%
Fever (multiple myeloma): 24%
Indigestion (multiple myeloma): 11%
Leukopenia (multiple myeloma): multiple myeloma, 35%)
Peripheral edema (multiple myeloma): multiple myeloma, 34%)
Pneumonia (multiple myeloma): (multiple myeloma, 15%)
Somnolence (multiple myeloma): ≥ 3%
Tremor (multiple myeloma): 26%)
Weight loss (multiple myeloma): (multiple myeloma, 23%)
Structure (SMILES): O=C1CCC(N2C(=O)c3ccccc3C2=O)C(=O)N1 (stereo not shown) [Thalomid]
Tremor (erythema nodosum leprosum): Tremor (erythema nodosum leprosum, 4.2%; multiple myeloma,
Serious side effect, Cardiovascular (listed without frequency): Cardiac dysrhythmia
Asthenia (multiple myeloma): 21.9%; multiple myeloma, 24%), Confusional state (multiple
Dizziness (multiple myeloma): 19.2%; multiple myeloma, 23%), Somnolence (erythema nodosum
Dry skin (multiple myeloma): Dermatologic: Dry skin (multiple myeloma, 21%), Rash (erythema
Dyspnea (multiple myeloma): Respiratory: Dyspnea (multiple myeloma, 42%), Pneumonia
Hypocalcemia (multiple myeloma): Endocrine metabolic: Hypocalcemia (multiple myeloma, 72%),
Muscle weakness (multiple myeloma): Musculoskeletal: Muscle weakness (multiple myeloma, 40%)

Structure (SMILES): NS(=O)(=O)c1cc(C(=O)O)c(NCc2ccco2)cc1Cl [Furosemide (Lasix)]
Hyperuricemia (incidence) (in vivo): Endocrine metabolic: Hyperuricemia (40%), Hypomagnesemia

Structure (SMILES): CN1CCc2nc(C(=O)N[C@@H]3C[C@@H](C(=O)N(C)C)CC[C@@H]3NC(=O)C(=O)Nc3ccc(Cl)cn3)sc2C1 [Edoxaban (Savaysa)]
Bleeding, Major (in vivo): 3.1%; DVT or pulmonary embolism, 1.4%)
Hemorrhagic cerebral infarction (in vivo): fibrillation, 0.3%), Intracranial hemorrhage (Nonvalvular atrial
Interstitial lung disease (in vivo): 0.2%)
Intracranial hemorrhage (in vivo): fibrillation, 0.5%; DVT or pulmonary embolism, 0.1%)
Liver function tests abnormal (in vivo): fibrillation, 4.8%; DVT or pulmonary embolism, 7.8%)
Rash (in vivo): Dermatologic: Rash (3.6% to 4.2%)
